Data on 25 molecules can be found in PubChem BioAssay AID256 (DTP/NCI, 2004).

Inconclusive results and toxic doses are left out.

The assay has as its system CD2F1 mice, L1210 leukemia ip, survival T/C. Briefly: NCI In Vivo Anticancer Drug Screen. Data for tumor model L1210 Leukemia (intraperitoneal) in CD2F1 (CDF1) mice. The note with it: higher = longer survival. The method, boiled down: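 Mice carrying a transplanted tumor received test compound or vehicle alone. The value is the measurement in the treated group divided by that in the vehicle-treated control group.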

The mark [1] stands for this setting: endpoint: mean survival time, dose: 100.0 mg/kg/injection, schedule: Q04DX002 (ip), vehicle: saline with Tween-80.
The mark [2] stands for this setting: endpoint: mean survival time, dose: 200.0 mg/kg/injection, schedule: Q04DX002 (ip), vehicle: saline with Tween-80.
Where [3] appears, read: endpoint: mean survival time, dose: 400.0 mg/kg/injection, schedule: Q04DX002 (ip), vehicle: saline with Tween-80.
Where [4] appears, read: endpoint: mean survival time, dose: 100.0 mg/kg/injection, schedule: Q04DX003 (ip), vehicle: saline.
[5] abbreviates: endpoint: mean survival time, dose: 200.0 mg/kg/injection, schedule: Q04DX003 (ip), vehicle: saline.
The mark [6] stands for this setting: endpoint: mean survival time, dose: 400.0 mg/kg/injection, schedule: Q04DX003 (ip), vehicle: saline.
Where [7] appears, read: endpoint: mean survival time, dose: 100.0 mg/kg/injection, schedule: Q01DX009 (ip), vehicle: saline with Tween-80.
Setting [8] is: endpoint: mean survival time, dose: 100.0 mg/kg/injection, schedule: Q04DX003 (ip), vehicle: saline with Tween-80.
Where [9] appears, read: endpoint: mean survival time, dose: 200.0 mg/kg/injection, schedule: Q01DX009 (ip), vehicle: saline with Tween-80.
Where [10] appears, read: endpoint: mean survival time, dose: 200.0 mg/kg/injection, schedule: Q04DX003 (ip), vehicle: saline with Tween-80.
Setting [11] is: endpoint: mean survival time, dose: 400.0 mg/kg/injection, schedule: Q01DX009 (ip), vehicle: saline with Tween-80.
Setting [12] is: endpoint: mean survival time, dose: 400.0 mg/kg/injection, schedule: Q04DX003 (ip), vehicle: saline with Tween-80.
The mark [13] stands for this setting: endpoint: mean survival time, dose: 100.0 mg/kg/injection, schedule: Q01DX001 (ip), vehicle: saline with Tween-80.
[14] abbreviates: endpoint: mean survival time, dose: 100.0 mg/kg/injection, schedule: Q01DX009 (ip), vehicle: saline.
Where [15] appears, read: endpoint: mean survival time, dose: 200.0 mg/kg/injection, schedule: Q01DX009 (ip), vehicle: saline.
[16] abbreviates: endpoint: mean survival time, dose: 400.0 mg/kg/injection, schedule: Q01DX009 (ip), vehicle: saline.
Where [17] appears, read: endpoint: mean survival time, dose: 100.0 mg/kg/injection, schedule: Q04DX002 (ip), vehicle: saline.

Regarding `CC(=O)O[C@H]1CC[C@@]2(C)C(=CC[C@H]3[C@@H]4CC[C@H](O)[C@@]4(C)CC[C@@H]32)C1`, the T/C was 97 % of control (endpoint: mean survival time, dose: 100.0 mg/kg/injection, schedule: Q01DX009 (ip), vehicle: Klucel (hydroxypropylcellulose) (HPC)); 90 % of control (endpoint: mean survival time, dose: 200.0 mg/kg/injection, schedule: Q01DX009 (ip), vehicle: Klucel (hydroxypropylcellulose) (HPC)); 95 % of control (endpoint: mean survival time, dose: 400.0 mg/kg/injection, schedule: Q01DX009 (ip), vehicle: Klucel (hydroxypropylcellulose) (HPC)).
In the case of `CC([NH-])CC[NH-].O=C(O)C(=O)O.[Pt+2]` (stereo not given), the T/C (endpoint: mean survival time, dose: 3.12 mg/kg/injection, schedule: Q04DX003 (ip), vehicle: saline with Tween-80) is 152 % of control; the T/C (endpoint: mean survival time, dose: 6.25 mg/kg/injection, schedule: Q04DX003 (ip), vehicle: saline with Tween-80) is 235 % of control; the T/C (endpoint: mean survival time, dose: 12.5 mg/kg/injection, schedule: Q04DX003 (ip), vehicle: saline with Tween-80) was 265 % of control.
On to `O=C1OC(=O)C2C(c3ccccc3)=C3C(=C(c4ccccc4)C12)c1cccc2cccc3c12` (stereo not given), for which the T/C under setting [1] was 94 % of control, the T/C under setting [2] is 97 % of control and the T/C under setting [3] was 94 % of control.
On to `C[n+]1ccn(C(CC(=O)O)C(=O)O)c1` (stereo not given), for which the T/C under setting [4] is 101 % of control, the T/C under setting [5] is 103 % of control and the T/C under setting [6] is 106 % of control.
Regarding `Nc1nc(N)c(N=Nc2ccccc2S(=O)(=O)O)c(N)n1`, the T/C by setting is: under setting [7], 94 % of control; under setting [8], 95 % of control; under setting [9], 108 % of control; under setting [10], 100 % of control; under setting [11], 100 % of control; under setting [12], 93 % of control.
As to `CCCCOC(=O)C1C2CCC(O2)C1C(N)=O` (stereo not given), the T/C is, setting by setting: (endpoint: mean survival time, dose: 25.0 mg/kg/injection, schedule: Q04DX002 (ip), vehicle: saline with Tween-80) 95 % of control; (endpoint: mean survival time, dose: 50.0 mg/kg/injection, schedule: Q04DX002 (ip), vehicle: saline with Tween-80) 101 % of control.
Take `CC(O)CNc1nc(N)[nH]c(=O)c1[N+](=O)[O-]` (stereo not given): the T/C was 94 % of control under setting [13] and 89 % of control (endpoint: mean survival time, dose: 200.0 mg/kg/injection, schedule: Q01DX001 (ip), vehicle: saline with Tween-80).
On to `CC(C)(C)c1cccc(C(C)(C)C)c1O`, for which the T/C was 95 % of control under setting [14], 94 % of control under setting [15] and 106 % of control under setting [16].
Regarding `CCCC[P+](CCCC)(CCCC)Cc1ccc([N+](=O)[O-])cc1`, the T/C was 104 % of control (endpoint: mean survival time, dose: 12.5 mg/kg/injection, schedule: Q01DX009 (ip), vehicle: Klucel (hydroxypropylcellulose) (HPC)); 96 % of control (endpoint: mean survival time, dose: 25.0 mg/kg/injection, schedule: Q01DX009 (ip), vehicle: Klucel (hydroxypropylcellulose) (HPC)); 94 % of control (endpoint: mean survival time, dose: 25.0 mg/kg/injection, schedule: Q04DX003 (ip), vehicle: Klucel (hydroxypropylcellulose) (HPC)); 96 % of control (endpoint: mean survival time, dose: 50.0 mg/kg/injection, schedule: Q01DX001 (ip), vehicle: Klucel (hydroxypropylcellulose) (HPC)); 115 % of control (endpoint: mean survival time, dose: 50.0 mg/kg/injection, schedule: Q01DX009 (ip), vehicle: Klucel (hydroxypropylcellulose) (HPC)); 96 % of control (endpoint: mean survival time, dose: 50.0 mg/kg/injection, schedule: Q04DX002 (ip), vehicle: Klucel (hydroxypropylcellulose) (HPC)). The T/C (endpoint: mean survival time, dose: 50.0 mg/kg/injection, schedule: Q04DX003 (ip), vehicle: Klucel (hydroxypropylcellulose) (HPC)) is 94 % of control.
`CNS(=O)(=O)c1ccc2c(c1)nc(SC)n2C`: the T/C reads like this: under setting [7], 101 % of control; under setting [8], 102 % of control; under setting [9], 101 % of control; under setting [10], 94 % of control; under setting [11], 93 % of control; under setting [12], 95 % of control.
Take `Oc1cc(N2CC2)c(O)cc1N1CC1`: the T/C runs as follows: (endpoint: mean survival time, dose: 0.07 mg/kg/injection, schedule: Q01DX009 (ip), vehicle: saline) 111 % of control; (endpoint: mean survival time, dose: 0.15 mg/kg/injection, schedule: Q01DX009 (ip), vehicle: saline) 116 % of control.
Take `CCCCCOc1nccc(N)n1`: under setting [13], the T/C is 98 % of control.
For `O=Cc1ccccc1O`, under setting [17], the T/C is 93 % of control.
As to `C#CCC(O)CC` (stereo not given), the T/C is 103 % of control (endpoint: mean survival time, dose: 50.0 mg/kg/injection, schedule: Q01DX009 (ip), vehicle: saline); 107 % of control under setting [14]; 103 % of control under setting [15].
For `O=[N+]([O-])c1ccc2ccccc2c1I`, the T/C is 92 % of control under setting [7]; 87 % of control under setting [8]; 98 % of control under setting [9]; 93 % of control under setting [10]; 90 % of control under setting [11]; 92 % of control under setting [12].
For the molecule `[C-]#[O+].[Cl][Sn]([Cl])[Cl].[Cl][Sn]([Cl])[Cl].[Pt].c1cnc2c(c1)ccc1cccnc12`, the T/C is, setting by setting: (endpoint: median survival time, dose: 3.12 mg/kg/injection, schedule: Q04DX003 (ip), vehicle: saline with Tween-80) 113 % of control; (endpoint: median survival time, dose: 6.25 mg/kg/injection, schedule: Q04DX003 (ip), vehicle: saline with Tween-80) 109 % of control; (endpoint: median survival time, dose: 12.5 mg/kg/injection, schedule: Q04DX003 (ip), vehicle: saline with Tween-80) 109 % of control; (endpoint: median survival time, dose: 100.0 mg/kg/injection, schedule: Q04DX003 (ip), vehicle: saline with Tween-80) 106 % of control.
Regarding `CC(=O)NC1=CC(OC(C)=O)C(COC(C)=O)OC1n1cnc2c1c(=O)n(C)c(=O)n2C` (stereo not given), the T/C runs as follows: (endpoint: mean survival time, dose: 12.5 mg/kg/injection, schedule: Q01DX005 (ip), vehicle: distilled water + Tween-80) 93 % of control; (endpoint: mean survival time, dose: 25.0 mg/kg/injection, schedule: Q01DX005 (ip), vehicle: distilled water + Tween-80) 88 % of control; (endpoint: mean survival time, dose: 50.0 mg/kg/injection, schedule: Q01DX005 (ip), vehicle: distilled water + Tween-80) 88 % of control; (endpoint: mean survival time, dose: 200.0 mg/kg/injection, schedule: Q01DX005 (ip), vehicle: distilled water + Tween-80) 88 % of control.
Consider `COC(=O)c1cccc(C)n1`, for which the T/C by setting is: under setting [7], 108 % of control; under setting [9], 94 % of control; under setting [11], 94 % of control.
In the case of `CCOC(=O)c1cc2ccccc2n1-c1ccccc1`, the T/C was 95 % of control under setting [8], 97 % of control under setting [10] and 95 % of control under setting [12].
Turning to `CCCCCCCC(=O)N1C=CN(C(=O)CCCCCCC)C1`, the T/C is 104 % of control (endpoint: mean survival time, dose: 75.0 mg/kg/injection, schedule: Q04DX003 (ip), vehicle: saline); 98 % of control (endpoint: mean survival time, dose: 150.0 mg/kg/injection, schedule: Q04DX003 (ip), vehicle: saline); 98 % of control (endpoint: mean survival time, dose: 300.0 mg/kg/injection, schedule: Q04DX003 (ip), vehicle: saline).
Consider `ClCCn1c(CCl)nc2ccccc21`, for which the T/C (endpoint: mean survival time, dose: 10.0 mg/kg/injection, schedule: Q01DX009 (ip), vehicle: saline) is 98 % of control and the T/C (endpoint: mean survival time, dose: 20.0 mg/kg/injection, schedule: Q01DX009 (ip), vehicle: saline) is 94 % of control.
In the case of `NCc1cccnc1`, the T/C was 96 % of control under setting [17]; 107 % of control (endpoint: mean survival time, dose: 200.0 mg/kg/injection, schedule: Q04DX002 (ip), vehicle: saline); 111 % of control (endpoint: mean survival time, dose: 400.0 mg/kg/injection, schedule: Q04DX002 (ip), vehicle: saline).
In the case of `CC(C)=CC(O)CC(O)(C(F)(F)F)C(F)(F)F` (stereo not given), the T/C reads like this: (endpoint: mean survival time, dose: 100.0 mg/kg/injection, schedule: Q01DX001 (ip), vehicle: Klucel (hydroxypropylcellulose) (HPC)) 94 % of control; under setting [1], 94 % of control; (endpoint: mean survival time, dose: 200.0 mg/kg/injection, schedule: Q01DX001 (ip), vehicle: Klucel (hydroxypropylcellulose) (HPC)) 97 % of control; under setting [2], 94 % of control; (endpoint: mean survival time, dose: 400.0 mg/kg/injection, schedule: Q01DX001 (ip), vehicle: Klucel (hydroxypropylcellulose) (HPC)) 100 % of control; under setting [3], 90 % of control.
With `O=S(=O)(/C(=C\c1ccccc1)c1ccccc1)c1ccccc1`, the T/C under setting [4] was 90 % of control; the T/C under setting [15] is 90 % of control; the T/C under setting [5] is 92 % of control; the T/C under setting [16] was 88 % of control; the T/C under setting [6] was 90 % of control.
Take `CCNC1(c2ccccc2)CCCCC1`: the T/C (endpoint: mean survival time, dose: 25.0 mg/kg/injection, schedule: Q04DX003 (ip), vehicle: saline) was 105 % of control.
